Earlier results on 1 molecule are cited in US20070225340A1, “Phenyl Compounds And Their Use In The Treatment Of Conditions Mediated By The Action Of Pge2 At The Ep1 Receptor” (Glaxo Group Limited, priority 2004, published 2007).

In data set [1] the target is T1, EP1 receptor (Rattus norvegicus, UniProt P70597).
T1 sequence (P70597 1-405): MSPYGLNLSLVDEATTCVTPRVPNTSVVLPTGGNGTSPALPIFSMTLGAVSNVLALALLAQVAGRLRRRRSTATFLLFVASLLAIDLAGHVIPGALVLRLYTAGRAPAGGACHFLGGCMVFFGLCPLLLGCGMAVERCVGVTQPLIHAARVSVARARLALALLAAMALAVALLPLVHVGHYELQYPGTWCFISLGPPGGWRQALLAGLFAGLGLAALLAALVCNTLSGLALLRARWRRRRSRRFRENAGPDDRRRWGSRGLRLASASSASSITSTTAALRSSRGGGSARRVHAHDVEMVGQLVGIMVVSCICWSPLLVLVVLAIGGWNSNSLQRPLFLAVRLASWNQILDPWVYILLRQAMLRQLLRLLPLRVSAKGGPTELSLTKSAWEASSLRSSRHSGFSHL
Also on record: host or cells: living rodent (in vivo pain model). To be noted: rodent, post-operative pain; Anesthesia and Analgesia 2001, 92, 233-238.

For data set [2], the target named is T1, EP1 receptor. Details: host or cells: living rat (in vivo pain model). As to conditions: chronic constriction injury, Anesthesia and Analgesia 2001, 93, 1012-7.

With `Cc1cc(Cl)ccc1S(=O)(=O)NC[C@H]1C2CCC(CC2)[C@@H]1/C=C\CCCC(=O)O` [ONO-8711], the “effect on mechanical hyperalgesia” value on EP1 receptor [1] is given as “inhibits mechanical hyperalgesia”. Moreover, the “effect on hyperalgesia and allodynia” value at EP1 receptor [2] is “reduces hyperalgesia and allodynia”.
